Measured values reported in PubChem BioAssay (NCI).
Where “and” joins values, the source holds several entries; their conditions need not be identical. Equal entries are not always repeated.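 Method: 48-hour compound exposure of cells in 96-well plates, five concentrations, linear interpolation of endpoints. At the GI50, growth is halved. The concentration for full growth arrest is given as TGI.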

Legend:
Assay in all cases: inhibition of tumour cell growth, NCI panel, 48 h
SW-620 colon = system: SW-620 colon
HT29 colon = system: HT29 colon
SN12C renal = system: SN12C renal
CAKI-1 renal = system: CAKI-1 renal
SF-295 CNS = system: SF-295 CNS
NCI-H23 lung = system: NCI-H23 lung
SF-268 CNS = system: SF-268 CNS
HCC-2998 colon = system: HCC-2998 colon
UACC-257 melanoma = system: UACC-257 melanoma
HCT-15 colon = system: HCT-15 colon

N/C(=N\O)c1ncc(-c2ccc(C(F)(F)F)cc2)c(NC2CCCCCC2)n1
GI50 (SW-620 colon): 4.92 µM and 3.88 µM
TGI (SW-620 colon): 15.4 µM
GI50 (HT29 colon): 3.24 µM
TGI (HT29 colon): 10.4 µM
GI50 (SN12C renal): 5.79 µM and 3.05 µM
TGI (SN12C renal): 14.5 µM
GI50 (CAKI-1 renal): 5.71 µM and 1.69 µM
TGI (CAKI-1 renal): 8.1 µM
GI50 (SF-295 CNS): 2.55 µM
TGI (SF-295 CNS): 12.5 µM
GI50 (NCI-H23 lung): 3.76 µM
TGI (NCI-H23 lung): 16.3 µM
GI50 (SF-268 CNS): 3.64 µM
TGI (SF-268 CNS): 15.7 µM
GI50 (HCC-2998 colon): 3.92 µM
TGI (HCC-2998 colon): 14.3 µM
GI50 (UACC-257 melanoma): 3.23 µM
TGI (UACC-257 melanoma): 13.2 µM
GI50 (HCT-15 colon): 2.97 µM and 0.955 µM
TGI (HCT-15 colon): 15.1 µM

COC(=O)C(C(=O)C(=O)Nc1cccc(O)c1)c1nc2ccc(Cl)cc2[nH]c1=O (configuration not stated)
TGI (SW-620 colon): > 100 µM
TGI (HT29 colon): > 100 µM
TGI (SN12C renal): > 100 µM
TGI (CAKI-1 renal): > 100 µM
TGI (SF-295 CNS): > 100 µM
TGI (NCI-H23 lung): > 100 µM
TGI (SF-268 CNS): > 100 µM
TGI (HCC-2998 colon): > 100 µM
TGI (UACC-257 melanoma): > 100 µM
TGI (HCT-15 colon): > 100 µM

COC(=O)CCC(NC(=S)N/N=C(\C)c1ccccn1)C(=O)OC (configuration not stated)
TGI (SW-620 colon): > 100 µM
TGI (HT29 colon): > 100 µM
TGI (SN12C renal): > 100 µM
TGI (SF-295 CNS): > 100 µM
TGI (NCI-H23 lung): > 100 µM
TGI (SF-268 CNS): > 100 µM
TGI (HCC-2998 colon): > 100 µM
TGI (UACC-257 melanoma): > 100 µM
TGI (HCT-15 colon): > 100 µM

CCCNc1nc(N(C)O)nc(N(C)O)n1
GI50 (SW-620 colon): 3.46 µM
TGI (SW-620 colon): > 100 µM
GI50 (HT29 colon): 4.53 µM
TGI (HT29 colon): > 100 µM
GI50 (SN12C renal): 4.27 µM
TGI (SN12C renal): > 100 µM
GI50 (CAKI-1 renal): 3.15 µM
TGI (CAKI-1 renal): 43.7 µM
GI50 (SF-295 CNS): 2.36 µM
TGI (SF-295 CNS): > 56.2 µM
GI50 (NCI-H23 lung): 4.73 µM
TGI (NCI-H23 lung): > 100 µM
GI50 (SF-268 CNS): 1.39 µM
TGI (SF-268 CNS): > 56.6 µM
GI50 (HCC-2998 colon): 3.04 µM
TGI (HCC-2998 colon): > 100 µM
GI50 (UACC-257 melanoma): 4.13 µM
TGI (UACC-257 melanoma): > 46.2 µM
GI50 (HCT-15 colon): 0.504 µM
TGI (HCT-15 colon): > 100 µM

CC(=O)OC1(C#N)CC2OC1C1C2N1C(=O)c1ccccc1 (configuration not stated)
TGI (SW-620 colon): > 100 µM
TGI (SN12C renal): > 100 µM
TGI (CAKI-1 renal): > 100 µM
TGI (NCI-H23 lung): > 100 µM
TGI (SF-268 CNS): > 100 µM
TGI (HCC-2998 colon): > 100 µM
TGI (HCT-15 colon): > 100 µM

Cc1ccc2nc3c(Cl)cc(=O)cc-3sc2c1
TGI (SW-620 colon): 43.5 µM
TGI (HT29 colon): 91.7 µM
TGI (CAKI-1 renal): 71.1 µM
TGI (SF-295 CNS): 63.2 µM
TGI (SF-268 CNS): 68.1 µM
TGI (UACC-257 melanoma): 46.6 µM
TGI (HCT-15 colon): 32 µM

COc1ccc(CN2c3ccccc3Sc3ccccc32)cc1F
GI50 (SW-620 colon): 0.398 µM
TGI (SW-620 colon): > 100 µM
GI50 (HT29 colon): 0.352 µM
TGI (HT29 colon): > 100 µM
GI50 (SN12C renal): 1.13 µM
TGI (SN12C renal): > 100 µM
GI50 (CAKI-1 renal): 0.399 µM
TGI (CAKI-1 renal): > 100 µM
GI50 (SF-295 CNS): 0.323 µM
TGI (SF-295 CNS): > 48.4 µM
GI50 (NCI-H23 lung): 0.682 µM
TGI (NCI-H23 lung): > 100 µM
GI50 (SF-268 CNS): 1.14 µM
TGI (SF-268 CNS): > 100 µM
GI50 (HCC-2998 colon): 1.11 µM
TGI (HCC-2998 colon): > 35.8 µM
GI50 (HCT-15 colon): 0.435 µM
TGI (HCT-15 colon): > 100 µM

COc1cc2cc3c4c(cc(OC)c(OC)c4c2cc1OC)CCN3C(=O)CCCC(=O)O
TGI (SW-620 colon): > 100 µM
TGI (HT29 colon): > 100 µM
TGI (SN12C renal): > 100 µM
TGI (CAKI-1 renal): > 100 µM
TGI (SF-295 CNS): > 100 µM
TGI (NCI-H23 lung): > 100 µM
TGI (SF-268 CNS): > 100 µM
TGI (HCC-2998 colon): > 100 µM
TGI (UACC-257 melanoma): > 100 µM

NC(=S)N/N=C(/CC(=O)c1ccc([N+](=O)[O-])cc1)C(=O)Nc1ncc([N+](=O)[O-])s1
TGI (SW-620 colon): > 100 µM
TGI (HT29 colon): > 100 µM
TGI (SN12C renal): > 100 µM
TGI (SF-295 CNS): > 100 µM
TGI (NCI-H23 lung): > 100 µM
TGI (SF-268 CNS): > 100 µM
TGI (HCC-2998 colon): > 100 µM
TGI (UACC-257 melanoma): > 100 µM

CC(C)(O)[C@@H]1CCC(C)([C@H]2[C@@H](O)CC3(C)C4CC(OC5OC(CO)C(O)C(O)C5O)C5C(C)(C)[C@@H](OC6OCC(O)C(O)C6O)CC[C@@]56C[C@@]46CC[C@]23C)O1 (some centres not stated)
TGI (SW-620 colon): > 100 µM
TGI (HT29 colon): > 100 µM
TGI (SN12C renal): > 100 µM
TGI (SF-295 CNS): > 100 µM
TGI (NCI-H23 lung): > 100 µM
TGI (SF-268 CNS): > 100 µM
TGI (HCC-2998 colon): > 100 µM
TGI (UACC-257 melanoma): > 100 µM
TGI (HCT-15 colon): > 100 µM

COc1ccc(Nc2c3ccccc3nc3c2c2ccccc2n3C)cc1
GI50 (SW-620 colon): 41.7 µM
TGI (SW-620 colon): > 100 µM
GI50 (HT29 colon): 13.6 µM
TGI (HT29 colon): > 100 µM
GI50 (SN12C renal): 58.6 µM
TGI (SN12C renal): > 100 µM
GI50 (CAKI-1 renal): 30.7 µM
TGI (CAKI-1 renal): > 100 µM
GI50 (SF-295 CNS): 22.3 µM
TGI (SF-295 CNS): > 100 µM
GI50 (NCI-H23 lung): 34.8 µM
TGI (NCI-H23 lung): > 100 µM
GI50 (SF-268 CNS): 28 µM
TGI (SF-268 CNS): > 100 µM
GI50 (UACC-257 melanoma): 37.5 µM
TGI (UACC-257 melanoma): > 100 µM
GI50 (HCT-15 colon): 11.1 µM
TGI (HCT-15 colon): > 100 µM

CC(C)c1cc(C(C)C)c(S(=O)(=O)NN)c(C(C)C)c1
TGI (SW-620 colon): > 100 µM
TGI (HT29 colon): > 100 µM
TGI (SN12C renal): > 100 µM
TGI (CAKI-1 renal): > 100 µM
TGI (SF-295 CNS): > 100 µM
TGI (NCI-H23 lung): > 100 µM
TGI (SF-268 CNS): > 100 µM
TGI (UACC-257 melanoma): > 100 µM
TGI (HCT-15 colon): > 100 µM

Cc1ccc(-n2c3c(c4c(CN5CCCCC5)c(O)ccc42)CCc2ccccc2C3=O)cc1
GI50 (SW-620 colon): > 100 µM
TGI (SW-620 colon): > 100 µM
GI50 (SN12C renal): > 100 µM
TGI (SN12C renal): > 100 µM
GI50 (CAKI-1 renal): > 100 µM
TGI (CAKI-1 renal): > 100 µM
GI50 (SF-295 CNS): 35.8 µM
TGI (SF-295 CNS): > 100 µM
GI50 (NCI-H23 lung): > 100 µM
TGI (NCI-H23 lung): > 100 µM
GI50 (SF-268 CNS): > 100 µM
TGI (SF-268 CNS): > 100 µM
GI50 (HCC-2998 colon): > 100 µM
TGI (HCC-2998 colon): > 100 µM
GI50 (UACC-257 melanoma): > 100 µM
TGI (UACC-257 melanoma): > 100 µM
GI50 (HCT-15 colon): > 100 µM
TGI (HCT-15 colon): > 100 µM

CC(=O)OC1C=CC2CCN3C(=O)c4cc5c(cc4[C@H]1C23)OCO5 (some centres not stated)
TGI (SW-620 colon): > 100 µM
TGI (HT29 colon): > 100 µM
TGI (SN12C renal): > 100 µM
TGI (SF-295 CNS): > 100 µM
TGI (NCI-H23 lung): > 100 µM
TGI (SF-268 CNS): > 100 µM
TGI (UACC-257 melanoma): > 100 µM
TGI (HCT-15 colon): > 100 µM

Cc1cc2c3ccccc3n(C)c2c2c1C(=O)c1ccccc1C2=O
TGI (SW-620 colon): > 100 µM
TGI (HT29 colon): 73.2 µM
TGI (SN12C renal): 41.7 µM
TGI (CAKI-1 renal): 54.8 µM
TGI (SF-295 CNS): 41.2 µM
TGI (NCI-H23 lung): 44 µM
TGI (SF-268 CNS): > 100 µM
TGI (HCC-2998 colon): 43.6 µM
TGI (UACC-257 melanoma): 43.3 µM

CCOC(=O)CC(=O)ON(C)C(=O)Cc1ccccc1
TGI (SW-620 colon): > 100 µM
TGI (HT29 colon): > 100 µM
TGI (SN12C renal): > 100 µM
TGI (CAKI-1 renal): > 100 µM
TGI (SF-295 CNS): > 100 µM
TGI (NCI-H23 lung): > 100 µM
TGI (SF-268 CNS): > 100 µM
TGI (UACC-257 melanoma): > 100 µM
TGI (HCT-15 colon): > 100 µM

COC(=O)/C(C#N)=C\N1CCN(C(=O)c2ccco2)C1=S
GI50 (SW-620 colon): 5.2 µM
TGI (SW-620 colon): 19.7 µM
GI50 (HT29 colon): 12.2 µM
TGI (HT29 colon): 55.1 µM
GI50 (SN12C renal): 3.69 µM
TGI (SN12C renal): 14.4 µM
GI50 (CAKI-1 renal): 3.43 µM
TGI (CAKI-1 renal): 14.1 µM
GI50 (SF-295 CNS): 26 µM
TGI (SF-295 CNS): 65.1 µM
GI50 (NCI-H23 lung): 13.2 µM
TGI (NCI-H23 lung): 27.7 µM
GI50 (SF-268 CNS): 4.83 µM
TGI (SF-268 CNS): 17.9 µM
GI50 (UACC-257 melanoma): 5.94 µM
TGI (UACC-257 melanoma): 22.5 µM
GI50 (HCT-15 colon): 2.95 µM
TGI (HCT-15 colon): > 100 µM

COc1ccc(/C=C2\N=C(c3ccccc3)OC2=O)c(OCc2ccccc2)c1
TGI (SW-620 colon): > 100 µM
TGI (SN12C renal): > 100 µM
TGI (CAKI-1 renal): > 100 µM
TGI (SF-295 CNS): 38.6 µM
TGI (SF-268 CNS): > 100 µM
TGI (HCC-2998 colon): > 100 µM
